Assay type in all cases: biochemical
One experiment has as its target TYK2 (Homo sapiens, UniProt P29597). Kind of experiment: JAK kinase activity, homogeneous time-resolved fluorescence (TYK2 reaction system). The following applies: ATP 2 μM, TYK2 protein 0.2 ng/μL; read-out: TYK 2 activity. In short, it runs like this: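 Activity read as the 665 nm/615 nm ratio after adding EDTA-containing detection mix with anti-phospho-substrate antibody and XL-615. Beforehand, 0.2 ng/μL TYK2, 2 μM ATP, substrate and compound reacted 1 h in pH 7.0 Hepes buffer with MgCl2 and DTT. IC50 fitted with Hill-slope equation.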

A further experiment concerns the target JAK1 (Homo sapiens, UniProt P23458). The experiment can be described thus: JAK kinase activity, homogeneous time-resolved fluorescence (JAK1 reaction system). Conditions: ATP 2 μM, JAK1 protein 0.2 ng/μL; read-out: JAK 1 activity. In short, it runs like this:
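Kinase activity read as the 665 nm/615 nm time-resolved fluorescence ratio (320 nm excitation) after EDTA-containing antibody and XL-615 addition. Reaction ran 1 h at pH 7.0 (Hepes, MgCl2, DTT) with 0.2 ng/μL JAK1 and ATP at 2 μM. IC50 derived by Hill-slope fit.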

Another experiment deals with T1, JAK3 (Homo sapiens, UniProt P52333).
T1 sequence (P52333 1-1124): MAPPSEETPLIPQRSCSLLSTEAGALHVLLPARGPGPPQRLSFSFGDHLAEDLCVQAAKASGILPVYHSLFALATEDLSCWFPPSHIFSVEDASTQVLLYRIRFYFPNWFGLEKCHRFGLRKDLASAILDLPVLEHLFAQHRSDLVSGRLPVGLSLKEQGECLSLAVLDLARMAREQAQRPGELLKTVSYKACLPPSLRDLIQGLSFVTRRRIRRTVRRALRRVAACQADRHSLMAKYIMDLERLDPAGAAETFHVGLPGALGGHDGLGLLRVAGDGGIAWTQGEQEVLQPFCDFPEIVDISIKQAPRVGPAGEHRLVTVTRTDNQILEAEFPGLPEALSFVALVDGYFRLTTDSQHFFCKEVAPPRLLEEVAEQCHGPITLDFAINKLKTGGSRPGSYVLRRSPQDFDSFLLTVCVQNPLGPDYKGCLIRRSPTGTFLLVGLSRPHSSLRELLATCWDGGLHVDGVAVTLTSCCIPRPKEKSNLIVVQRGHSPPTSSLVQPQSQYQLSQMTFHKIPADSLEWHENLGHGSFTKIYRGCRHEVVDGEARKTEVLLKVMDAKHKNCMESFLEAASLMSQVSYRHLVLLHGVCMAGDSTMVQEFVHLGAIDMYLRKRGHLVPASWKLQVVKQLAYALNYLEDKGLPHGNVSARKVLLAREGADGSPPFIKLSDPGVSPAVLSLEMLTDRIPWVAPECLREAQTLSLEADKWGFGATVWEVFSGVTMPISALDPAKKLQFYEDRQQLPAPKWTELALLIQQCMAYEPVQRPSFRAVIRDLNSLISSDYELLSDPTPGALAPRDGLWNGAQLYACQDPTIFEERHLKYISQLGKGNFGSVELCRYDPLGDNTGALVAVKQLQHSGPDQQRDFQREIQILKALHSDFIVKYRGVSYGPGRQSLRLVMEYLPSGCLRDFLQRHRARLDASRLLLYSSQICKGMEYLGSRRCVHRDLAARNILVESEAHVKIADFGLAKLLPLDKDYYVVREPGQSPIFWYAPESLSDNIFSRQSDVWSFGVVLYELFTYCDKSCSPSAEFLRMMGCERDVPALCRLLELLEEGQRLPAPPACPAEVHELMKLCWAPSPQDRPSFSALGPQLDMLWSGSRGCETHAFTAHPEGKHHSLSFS
The experiment can be described thus: JAK kinase activity, homogeneous time-resolved fluorescence (JAK3 reaction system). Conditions: ATP 2 μM, JAK3 protein 0.04 ng/μL; read-out: JAK 3 activity.

For another experiment, the target named is JAK2 (Homo sapiens, UniProt O60674). Kind of experiment: JAK kinase activity, homogeneous time-resolved fluorescence (JAK2 reaction system). Conditions: ATP 2 μM, JAK2 protein 0.01 ng/μL. In short, it runs like this: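 IC50 derived by Hill-equation fit of the 665/615 nm time-resolved fluorescence ratio after EDTA-containing detection mix with anti-phosphosubstrate antibody. Preceding 1 h reaction contained 2 μM ATP, 0.01 ng/μL JAK2, substrate, 50 mM Hepes pH 7.0, 5 mM MgCl2, 1 mM DTT.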
Sequence of JAK2 (O60674 whole entry): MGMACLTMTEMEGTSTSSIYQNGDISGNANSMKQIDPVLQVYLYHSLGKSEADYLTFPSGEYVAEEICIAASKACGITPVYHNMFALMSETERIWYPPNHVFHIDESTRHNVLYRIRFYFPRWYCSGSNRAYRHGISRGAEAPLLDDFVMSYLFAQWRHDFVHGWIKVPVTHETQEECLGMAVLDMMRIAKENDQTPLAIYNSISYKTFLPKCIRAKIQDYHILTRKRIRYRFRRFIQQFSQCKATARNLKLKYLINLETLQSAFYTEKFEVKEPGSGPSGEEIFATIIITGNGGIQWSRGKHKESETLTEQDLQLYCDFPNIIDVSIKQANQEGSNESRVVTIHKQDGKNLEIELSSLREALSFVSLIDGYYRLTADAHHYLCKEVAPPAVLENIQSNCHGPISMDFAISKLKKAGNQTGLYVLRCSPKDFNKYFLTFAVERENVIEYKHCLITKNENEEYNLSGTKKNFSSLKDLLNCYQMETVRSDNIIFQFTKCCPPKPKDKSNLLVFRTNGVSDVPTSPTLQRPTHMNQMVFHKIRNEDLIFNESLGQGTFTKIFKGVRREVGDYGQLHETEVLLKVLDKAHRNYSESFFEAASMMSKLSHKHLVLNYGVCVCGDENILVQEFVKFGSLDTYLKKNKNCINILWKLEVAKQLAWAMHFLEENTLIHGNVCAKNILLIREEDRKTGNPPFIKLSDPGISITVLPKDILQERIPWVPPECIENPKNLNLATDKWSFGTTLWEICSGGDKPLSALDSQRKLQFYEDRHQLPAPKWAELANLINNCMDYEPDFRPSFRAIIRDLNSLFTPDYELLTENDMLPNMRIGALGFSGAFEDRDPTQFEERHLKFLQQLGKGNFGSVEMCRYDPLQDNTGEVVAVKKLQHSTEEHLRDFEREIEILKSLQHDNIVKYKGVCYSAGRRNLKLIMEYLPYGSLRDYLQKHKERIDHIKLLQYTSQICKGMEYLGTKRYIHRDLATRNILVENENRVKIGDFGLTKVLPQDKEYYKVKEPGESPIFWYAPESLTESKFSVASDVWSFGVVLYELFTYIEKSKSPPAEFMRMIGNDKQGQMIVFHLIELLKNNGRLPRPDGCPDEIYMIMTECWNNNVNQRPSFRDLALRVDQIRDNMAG

Structures are written as SMILES.

Sequence of JAK1 (P23458 whole entry): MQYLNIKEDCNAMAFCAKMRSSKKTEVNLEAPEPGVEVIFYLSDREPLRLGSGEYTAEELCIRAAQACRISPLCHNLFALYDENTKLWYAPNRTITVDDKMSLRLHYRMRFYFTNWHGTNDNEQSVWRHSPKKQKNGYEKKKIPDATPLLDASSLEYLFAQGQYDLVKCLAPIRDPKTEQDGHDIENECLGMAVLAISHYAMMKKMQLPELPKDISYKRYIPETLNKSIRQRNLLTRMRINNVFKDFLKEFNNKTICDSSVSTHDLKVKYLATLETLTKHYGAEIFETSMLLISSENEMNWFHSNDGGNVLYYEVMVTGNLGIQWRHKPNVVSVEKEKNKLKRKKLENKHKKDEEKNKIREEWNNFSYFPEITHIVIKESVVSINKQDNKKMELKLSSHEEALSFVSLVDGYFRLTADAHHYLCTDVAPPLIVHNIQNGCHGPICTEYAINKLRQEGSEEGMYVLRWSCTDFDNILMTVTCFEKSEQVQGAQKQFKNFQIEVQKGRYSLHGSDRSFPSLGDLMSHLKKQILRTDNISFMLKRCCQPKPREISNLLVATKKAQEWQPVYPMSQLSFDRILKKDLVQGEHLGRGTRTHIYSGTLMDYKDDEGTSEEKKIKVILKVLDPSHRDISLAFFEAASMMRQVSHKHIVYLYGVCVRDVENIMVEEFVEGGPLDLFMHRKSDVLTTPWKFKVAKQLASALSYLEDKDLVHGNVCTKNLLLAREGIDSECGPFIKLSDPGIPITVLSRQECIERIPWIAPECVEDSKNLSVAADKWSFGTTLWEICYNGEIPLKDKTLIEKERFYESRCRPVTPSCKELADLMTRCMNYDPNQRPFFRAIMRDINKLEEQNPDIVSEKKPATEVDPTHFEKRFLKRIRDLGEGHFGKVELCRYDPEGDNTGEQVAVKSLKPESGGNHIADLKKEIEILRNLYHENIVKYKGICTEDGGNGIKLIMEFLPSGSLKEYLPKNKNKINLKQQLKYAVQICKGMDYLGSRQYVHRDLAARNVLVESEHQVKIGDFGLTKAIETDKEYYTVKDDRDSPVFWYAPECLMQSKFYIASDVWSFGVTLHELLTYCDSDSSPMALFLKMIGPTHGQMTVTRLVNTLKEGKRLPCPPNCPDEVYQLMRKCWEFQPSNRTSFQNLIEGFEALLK
Sequence of TYK2 (P29597 whole entry): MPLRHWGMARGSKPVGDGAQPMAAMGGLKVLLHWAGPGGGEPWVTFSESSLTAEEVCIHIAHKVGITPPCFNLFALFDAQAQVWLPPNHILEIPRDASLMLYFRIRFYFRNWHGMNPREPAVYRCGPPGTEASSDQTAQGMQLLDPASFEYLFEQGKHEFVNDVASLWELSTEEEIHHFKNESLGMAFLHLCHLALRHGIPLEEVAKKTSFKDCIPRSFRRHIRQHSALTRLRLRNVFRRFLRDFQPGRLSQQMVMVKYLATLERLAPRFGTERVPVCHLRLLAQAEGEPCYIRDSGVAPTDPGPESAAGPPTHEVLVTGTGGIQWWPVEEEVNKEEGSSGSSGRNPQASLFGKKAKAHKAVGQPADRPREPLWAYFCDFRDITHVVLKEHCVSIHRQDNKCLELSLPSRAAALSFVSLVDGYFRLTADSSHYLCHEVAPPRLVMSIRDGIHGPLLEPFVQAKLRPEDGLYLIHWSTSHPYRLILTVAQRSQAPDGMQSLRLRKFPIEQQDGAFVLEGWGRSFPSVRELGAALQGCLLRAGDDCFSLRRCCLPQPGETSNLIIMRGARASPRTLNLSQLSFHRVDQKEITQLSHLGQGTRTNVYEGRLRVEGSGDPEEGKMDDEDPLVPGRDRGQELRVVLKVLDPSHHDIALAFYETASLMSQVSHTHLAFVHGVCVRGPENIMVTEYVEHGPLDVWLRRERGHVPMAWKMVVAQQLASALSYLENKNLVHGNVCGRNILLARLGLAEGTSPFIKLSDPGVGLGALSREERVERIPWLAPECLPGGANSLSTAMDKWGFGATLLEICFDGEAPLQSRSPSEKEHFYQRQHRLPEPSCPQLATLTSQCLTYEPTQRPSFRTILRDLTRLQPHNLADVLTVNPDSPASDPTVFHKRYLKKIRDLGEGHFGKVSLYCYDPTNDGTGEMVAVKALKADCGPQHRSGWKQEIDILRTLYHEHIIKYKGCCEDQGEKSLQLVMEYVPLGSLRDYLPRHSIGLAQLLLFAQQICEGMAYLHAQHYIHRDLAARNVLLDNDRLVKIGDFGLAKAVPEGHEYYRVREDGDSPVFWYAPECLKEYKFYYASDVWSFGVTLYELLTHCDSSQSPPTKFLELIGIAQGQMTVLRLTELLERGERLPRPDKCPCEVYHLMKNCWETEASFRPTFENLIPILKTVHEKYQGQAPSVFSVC

On to `CN1CCN(c2ccc3cc2COCCCCNC(=O)c2ccc(c(N)c2)-c2ccnc(n2)N3)CC1` [Example 70, 1^2-amino-4^4-(4-methylpiperazin-1-yl)-6-oxa-3,11-diaza-2(4,2)-pyrimidi-na-1(1,4),4(1,3)-dibenzenacyclo-dodecaphan-12-one], for which the IC50 on TYK2 lay within 1000 to 10000 nM; on JAK1, 1000 to 10000 nM; on JAK3, 11 to 100 nM; against JAK2, 101 to 1000 nM.

Consider `O=C1NCCCCOCc2cc(ccc2OC2CCC2)Nc2nccc(n2)-c2ccc1cc2[N+](=O)[O-]` [Example 71, 4^4-cyclobutoxy-1^2-nitro-6-oxa-3,11-diaza-2(4,2)-pyrimidina-1(1,4),4(1,3)-dibenzenacyclododecaphan-12-one], for which the IC50 was > 10000 nM at TYK2, > 10000 nM at JAK1, 1000 to 10000 nM on JAK3 and > 10000 nM against JAK2.

In the case of `O=C1NCCCCOCc2cc(ccc2OC2COC2)Nc2nccc(n2)-c2ccc1cc2[N+](=O)[O-]` [Example 72, 1^2-nitro-4^4-(oxetan-3-oxy)-6-oxa-3,11-diaza-2(4,2)-pyrimidina-1(1,4),4(1,3)-dibenzenacyclododecaphan-12-one], the IC50 was > 10000 nM at TYK2, 1000 to 10000 nM on JAK1, 101 to 1000 nM at JAK3 and 1000 to 10000 nM at JAK2.

As to `O=C1NCCCCOCc2cc(ccc2OC2CC2)Nc2nccc(n2)-c2ccc1cc2[N+](=O)[O-]` [Example 73, 4^4-cyclopropoxy-1^2-nitro-6-oxa-3,11-diaza-2(4,2)-pyrimidina-1(1,4),4(1,3)-dibenzenacyclododecaphan-12-one], the IC50 on TYK2 was > 10000 nM; on JAK1, 1000 to 10000 nM; at JAK3 it was 101 to 1000 nM; on JAK2 it was 1000 to 10000 nM.

In the case of `Nc1cc2ccc1-c1ccnc(n1)Nc1ccc(OC3CC3)c(c1)COCCCCNC2=O` [Example 74, 1^2-amino-4^4-cyclopropoxy-6-oxa-3,11-diaza-2(4,2)-pyrimidina-1(1,4),4(1,3)-dibenzenacyclododecaphan-12-one], the IC50 at TYK2 is 1000 to 10000 nM; on JAK1, 1000 to 10000 nM; at JAK3, < 10 nM; on JAK2 it was 101 to 1000 nM.

For the molecule `Nc1cc2ccc1-c1ccnc(n1)Nc1ccc(OC3COC3)c(c1)COCCCCNC2=O` [Example 75, 1^2-amino-4^4-(oxetan-3-oxy)-6-oxa-3,11-diaza-2(4,2)-pyrimidina-1(1,4),4(1,3)-dibenzenacyclododecaphan-12-one], the IC50 was in the range of 1000 to 10000 nM at TYK2, 1000 to 10000 nM at JAK1, 11 to 100 nM at JAK3 and 101 to 1000 nM on JAK2.

On to `O=C1NCCCCOCc2cc(cc(N3CCSCC3)c2)Nc2nccc(n2)-c2ccc1cc2[N+](=O)[O-]` [Example 76, 1^2-nitro-4^5-thiomorpholin-6-oxa-3,11-diaza-2(4,2)-pyrimidina-1(1,4),4(1,3)-dibenzenacyclododecaphan-12-one], for which the IC50 on TYK2 was > 10000 nM; at JAK1, 1000 to 10000 nM; at JAK3 it was 101 to 1000 nM; at JAK2, 101 to 1000 nM.

Consider `Nc1cc2ccc1-c1ccnc(n1)Nc1cc(cc(N3CCSCC3)c1)COCCCCNC2=O` [Example 77, 1^2-amino-4^5-thiomorpholin-6-oxa-3,11-diaza-2(4,2)-pyrimidina-1(1,4),4(1,3)-dibenzenacyclododecaphan-12-one], for which the IC50 at TYK2 lay in the range of 101 to 1000 nM; on JAK1 it was 101 to 1000 nM; at JAK3, 11 to 100 nM; at JAK2, 11 to 100 nM.

On to `Cc1cc2ccc1-c1ccnc(n1)Nc1ccc(N)c(c1)COCCCCNC2=O` [Example 78, 4^4-amino-1^2-methyl-6-oxa-3,11-dia-za-2(4,2)-pyrimidina-1(1,4),4(1,3)-dibenzenacyclododecaphan-12-one], for which the IC50 on TYK2 was > 10000 nM; on JAK1 it was 1000 to 10000 nM; on JAK3, 11 to 100 nM; against JAK2, 101 to 1000 nM.
